Assay results from patent US11197871B2, “Methods and materials for treating calcific aortic valve stenosis” (Mayo Foundation for Medical Education and Research, priority 2012, dated 2021).
“Also recorded” adds a separate entry of the source.

Tests used:
[1] = test system: aortic valve interstitial cells; test: Western blotting of BMP, TGFβ and sGC signaling in valve interstitial cells treated with BMP2, TGFβ1 or vehicle, with or without Ataciguat, for 18 hours; format: cell-based, human and mouse; settings: Ataciguat 1 μmol, 37° C.
Procedure: FIG. 4 is a graph plotting p-VASP^239 levels detected in aortic valve interstitial cells treated with BMP2 (100 ng/mL), TGFβ1 (10 ng/mL), or neither (control; CTRL) in the presence or absence of Ataciguat (1 μmol) for 18 hours at 37° C.
FIG. 5 is a graph plotting p-Smad1/5/8 levels detected in aortic valve interstitial cells treated with BMP2 (100 ng/mL), TGFβ1 (10 ng/mL), or neither (control; CTRL) in the presence or absence of Ataciguat (1 μmol) for 18 hours at 37° C.
FIG. 6 is a graph plotting Sp7 levels detected in aortic valve interstitial cells treated with BMP2 […], or neither (control; CTRL) in the presence or absence of Ataciguat (1 μmol) for 18 hours at 37° C.
FIG. 7 is a graph plotting p-Smad2 levels detected in aortic valve interstitial cells treated with BMP2 […], or neither (control; CTRL) in the presence or absence of Ataciguat (1 μmol) for 18 hours at 37° C.
Additional experiments were performed to confirm that Ataciguat activates sGC signaling, attenuates BMP2 signaling, attenuates BMP2 target induction, and attenuates fibrogenic signaling in valve interstitial cells. In brief, cells were maintained in Dulbecco's Modified Eagle's Medium (DMEM) with 20% fetal bovine serum (FBS) and expanded to confluence in 6 well plates in a standard 5% CO2 incubator at 37° C. Cells were then treated with BMP2 (100 ng/mL), TGFβ1 (10 ng/mL), or vehicle (phosphate buffered saline) in the absence or presence of Ataciguat (1 μmol) for 18 hours. Cells were lysed using standard protein lysis buffer containing protease and phosphatase inhibitors, and Western blotting was performed to evaluate changes in protein levels of BMP, TGFβ, and sGC signaling.

[2] = test system: aortic valve interstitial cells; test: BMP2-treated aortic valve interstitial cells with or without Ataciguat for 24 hours (pVASP239, Sp7); format: cell-based; settings: in vitro
Procedure: Overexpression of DDAH1 reduces endogenous inhibitors of NOS, increases NO production, and increases sGC signaling, ultimately resulting in slower progression of CAVS.
To determine whether induction of sGC signaling reduced osteogenic signaling in vitro, aortic valve interstitial cells were treated with BMP2 in the presence or absence of Ataciguat (HMR1766, 5-Chloro-2-[[(5-chloro-2-thienyl)sulfonyl]amino]-N-[4-(4-morpholinylsulfonyl)phenyl]benzamide) for 24 hours.

O=C(Nc1ccc(S(=O)(=O)N2CCOCC2)cc1)c1cc(Cl)ccc1NS(=O)(=O)c1ccc(Cl)s1 [Ataciguat, 5-Chloro-2-[[(5-chloro-2-thienyl)sulfonyl]amino]-N-[4-(4-morpholinylsulfonyl)phenyl]benzamide]
sGC signaling (p-VASP239 levels) ([1]; BMP2 100 ng/mL, TGFβ1 10 ng/mL or control, FIG. 4, replicated in human (HAV-001, HAV-002, HAV-003) and mouse (MAV1, MAV2, MAV4) cell lines): effectively activated sGC signaling | BMP2 signaling (p-Smad1/5/8 levels) ([1]; BMP2 100 ng/mL, TGFβ1 10 ng/mL or control, FIG. 5, replicated in human and mouse cell lines): attenuated canonical BMP2 signaling | BMP2 target induction (Sp7 levels) ([1]; BMP2, TGFβ1 or control, FIG. 6, replicated in human and mouse cell lines): attenuated BMP target induction; also recorded: attenuated BMP2 target induction | fibrogenic signaling (p-Smad2 levels) ([1]; BMP2, TGFβ1 or control, FIG. 7, replicated in human and mouse cell lines): partially attenuated fibrogenic signaling | sGC signaling (indicated by pVASP239 levels) ([2]; FIG. 2A): activated sGC signaling | osteogenic signaling (BMP2-induced Sp7 expression) ([2]; FIG. 2B): profoundly suppressed osteogenic signaling
